In the CheMixHub viscosity set:

Test: xn = mol fraction of the nth substance listed

CCCC(=O)OCC + C1CCCCC1
viscosity [mPa·s], 101 kPa
Details	298.15 K	308.15 K
x1 = 0.0551	0.852	0.72
x1 = 0.1552	0.796	0.667
x1 = 0.2554	0.75	0.626
x1 = 0.3554	0.711	0.594
x1 = 0.4504	0.682	0.573
x1 = 0.4992	0.669	0.564
x1 = 0.5558	0.656	0.557
x1 = 0.6532	0.638	0.549
x1 = 0.7547	0.624	0.548
x1 = 0.8532	0.616	0.554
x1 = 0.9564	0.613	0.568

CCCCN + C1CCCCC1
viscosity [mPa·s], 101 kPa
Details	303.15 K	313.15 K
x1 = 0.00966	0.8095	0.7083
x1 = 0.01973	0.8005	0.6998
x1 = 0.02822	0.7907	0.6925
x1 = 0.03804	0.7823	0.6831
x1 = 0.04713	0.7702	0.6749
x1 = 0.05811	0.758	0.6646
x1 = 0.0674	0.7469	0.6553
x1 = 0.07236	0.7374	0.6487
x1 = 0.08731	0.7267	0.637
x2 = 0.1009	0.453	–
x2 = 0.2007	0.467	–
x2 = 0.3012	0.492	–
x2 = 0.3987	0.501	–
x2 = 0.4982	0.529	–
x2 = 0.5729	0.553	–
x2 = 0.7003	0.601	–
x2 = 0.7863	0.652	–
x2 = 0.8993	0.725	–

CCCCN + C1COCCO1
298.15 K, 101 kPa
Details	viscosity [mPa·s]
x1 = 0.05	1.094
x1 = 0.1	1.019
x1 = 0.1005	1.018
x1 = 0.15	0.953
x1 = 0.2	0.896
x1 = 0.2025	0.893
x1 = 0.25	0.846
x1 = 0.2973	0.806
x1 = 0.3	0.801
x1 = 0.35	0.761
x1 = 0.3935	0.726
x1 = 0.4	0.725
x1 = 0.45	0.692
x1 = 0.4987	0.665
x1 = 0.5	0.662
x1 = 0.55	0.634
x1 = 0.5971	0.609
x1 = 0.6	0.609
x1 = 0.65	0.585
x1 = 0.6965	0.566
x1 = 0.7	0.564
x1 = 0.75	0.545
x1 = 0.7959	0.529
x1 = 0.8	0.528
x1 = 0.85	0.512
x1 = 0.9	0.498
x1 = 0.9041	0.497
x1 = 0.95	0.486

CCCCN + C=C(C)C(=O)OC
303.15 K, 101 kPa
Details	viscosity [mPa·s]
x2 = 0.1016	0.4525
x2 = 0.1939	0.4608
x2 = 0.3316	0.4724
x2 = 0.4989	0.4852
x2 = 0.5966	0.4921
x2 = 0.8001	0.5045
x2 = 0.9006	0.5097

O=[N+]([O-])[O-].[Ag+] + CC#N
298.15 K, 101 kPa
Details	viscosity [mPa·s]
x1 = 0.012	0.409
x1 = 0.03806	0.524
x1 = 0.1017	1.046
x1 = 0.2421	6.48

O=C(O)C(Cl)(Cl)Cl + CC(=O)O
298.15 K, 101 kPa
Details	viscosity [mPa·s]
x1 = 0.0737	1.532
x1 = 0.1777	2.228
x1 = 0.3209	3.362
x1 = 0.4348	4.346
x1 = 0.5262	5.176
x1 = 0.5853	5.859
x1 = 0.6581	6.854

CC(=O)[O-].[NH4+] + CC(=O)[O-].CC[n+]1ccn(C)c1
101 kPa
Details	viscosity [mPa·s]
298.15 K, x1 = 0.0503	152.5
303.15 K, x1 = 0.1703	185.5

O=C(O)C(Cl)(Cl)Cl + CC(=O)c1ccccc1
298.15 K, 101 kPa
Details	viscosity [mPa·s]
x1 = 0.0896	2.112
x1 = 0.14	2.402
x1 = 0.2121	2.931
x1 = 0.2939	3.735
x1 = 0.409	5.54
x1 = 0.4876	7.349
x1 = 0.5794	9.33
x1 = 0.6815	11.15

CCCCN + CC(C)(C)O
viscosity [mPa·s], 101 kPa
Details	x2 = 0.1	x2 = 0.2004	x2 = 0.2999	x2 = 0.4	x2 = 0.4996	x2 = 0.6	x2 = 0.7	x2 = 0.8	x2 = 0.9004	x2 = 0.95
303.15 K	0.5062	0.5833	0.681	0.804	0.9662	1.177	1.466	1.866	2.458	2.869
308.15 K	0.4732	0.541	0.6257	0.733	0.8694	1.046	1.279	1.591	2.021	2.3
313.15 K	0.4425	0.5022	0.5783	0.6716	0.7865	0.9346	1.119	1.363	1.68	1.874
318.15 K	0.4156	0.4687	0.5345	0.6159	0.7149	0.8377	0.9897	1.183	1.417	1.553
323.15 K	0.3905	0.4378	0.4957	0.5666	0.6519	0.7551	0.8801	1.031	1.21	1.309

CC[N+](=O)[O-] + CC(C)(C)O
viscosity [mPa·s], 101.33 kPa
Details	298.15 K	303.15 K	313.15 K
x2 = 0.0502	0.646	0.61	0.546
x2 = 0.1001	0.647	0.609	0.544
x2 = 0.1499	0.655	0.615	0.546
x2 = 0.2002	0.67	0.626	0.547
x2 = 0.2501	0.691	0.643	0.563
x2 = 0.3001	0.718	0.667	0.58
x2 = 0.35	0.753	0.694	0.597
x2 = 0.4	0.794	0.73	0.622
x2 = 0.4501	0.845	0.778	0.652
x2 = 0.5001	0.909	0.824	0.687
x2 = 0.55	0.988	0.886	0.728
x2 = 0.6	1.075	0.958	0.777
x2 = 0.6499	1.185	1.047	0.836
x2 = 0.6998	1.323	1.158	0.907
x2 = 0.7498	1.499	1.3	0.997
x2 = 0.7998	1.73	1.475	1.104
x2 = 0.8498	2.063	1.728	1.258
x2 = 0.8997	2.505	2.068	1.449
x2 = 0.95	3.231	2.574	1.718

Cc1ccncc1 + CC(C)(C)O
298.15 K, 101.33 kPa
Details	viscosity [mPa·s]
x2 = 0.0724	0.8901
x2 = 0.2166	0.9887
x2 = 0.2902	1.056
x2 = 0.3416	1.122
x2 = 0.507	1.386
x2 = 0.606	1.641
x2 = 0.6484	1.777
x2 = 0.7197	2.085
x2 = 0.8	2.537
x2 = 0.8603	2.959

O=C(O)C(Cl)(Cl)Cl + CC(C)=O
viscosity [mPa·s], 101 kPa
Details	298.15 K	308.15 K	318.15 K
x1 = 0.0484	0.368	–	–
x1 = 0.1316	0.4855	–	–
x1 = 0.165	–	0.5039	0.453
x1 = 0.2517	–	0.6893	0.6078
x1 = 0.2543	0.8156	–	–
x1 = 0.3485	–	1.01	0.8833
x1 = 0.3826	1.433	–	–
x1 = 0.4411	–	1.508	1.273
x1 = 0.5048	2.571	–	–
x1 = 0.5537	–	2.424	1.967
x1 = 0.5971	3.829	–	–
x1 = 0.6808	–	3.725	2.922
x1 = 0.7175	5.808	–	–
x1 = 0.7475	–	4.527	3.504
x1 = 0.8521	–	5.855	4.441
x1 = 0.9183	–	–	5.024

CCCCN + CC(C)CO
298.15 K, 101.32 kPa
Details	viscosity [mPa·s]
x2 = 0.1005	0.5513
x2 = 0.2	0.6546
x2 = 0.2984	0.7783
x2 = 0.3994	0.9361
x2 = 0.4997	1.135
x2 = 0.5998	1.373
x2 = 0.7007	1.674
x2 = 0.8122	2.126
x2 = 0.8939	2.593

CC[N+](=O)[O-] + CC(C)O
viscosity [mPa·s], 101.33 kPa
Details	293.15 K	303.15 K	313.15 K
x2 = 0.0501	0.68	0.605	0.536
x2 = 0.1	0.672	0.595	0.53
x2 = 0.15	0.671	0.592	0.526
x2 = 0.2	0.678	0.594	0.526
x2 = 0.25	0.698	0.601	0.53
x2 = 0.3	0.707	0.613	0.538
x2 = 0.35	0.729	0.628	0.546
x2 = 0.4	0.766	0.647	0.559
x2 = 0.4501	0.8	0.67	0.576
x2 = 0.5	0.827	0.697	0.597
x2 = 0.5499	0.881	0.731	0.62
x2 = 0.6001	0.932	0.777	0.648
x2 = 0.65	1	0.819	0.683
x2 = 0.7	1.08	0.877	0.725
x2 = 0.7499	1.18	0.949	0.774
x2 = 0.8	1.276	1.052	0.849
x2 = 0.8499	1.467	1.154	0.915
x2 = 0.9	1.681	1.305	1.021
x2 = 0.95	1.983	1.507	1.16

Cc1ccncc1 + CC(C)O
298.15 K, 101.33 kPa
Details	viscosity [mPa·s]
x2 = 0.0886	0.8731
x2 = 0.1711	0.8916
x2 = 0.2569	0.9174
x2 = 0.4424	0.9998
x2 = 0.5207	1.048
x2 = 0.6685	1.181
x2 = 0.8095	1.405
x2 = 0.8831	1.599
